Laboratory results: ChEMBL document CHEMBL1201862, “PubChem BioAssay data set” (2004)
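Step 1: Grow cells in 96-well plates. Step 2: Expose to compound for 48 hours at 5 concentrations. Step 3: Interpolate endpoints linearly; if unreached, use highest concentration. Abbreviation: GI50, concentration required for 50% inhibition of growth.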 The source made the active and inactive calls. No stated cut-off is given here; in the data, active = GI50 up to about 1.1 µM and inactive = higher.

Columns and labels:
Assay in all cases: DTP human tumour cell line panel, 48 h
Malme-3M = system: Malme-3M
SK-MEL-28 = system: SK-MEL-28
NCI/ADR-RES = system: NCI/ADR-RES
A549 = system: A549
UO-31 = system: UO-31
HOP-62 = system: HOP-62
SW-620 = system: SW-620
MDA-MB-231 = system: MDA-MB-231
OVCAR-3 = system: OVCAR-3
SR = system: SR
SF-268 = system: SF-268
HCT-15 = system: HCT-15
BT-549 = system: BT-549
SF-295 = system: SF-295
EKVX = system: EKVX
NCI-H226 = system: NCI-H226
786-0 = system: 786-0
CAKI-1 = system: CAKI-1
SK-MEL-5 = system: SK-MEL-5
LOX IMVI = system: LOX IMVI
COLO 205 = system: COLO 205
KM12 = system: KM12
Hs-578T = system: Hs-578T
HCC 2998 = system: HCC 2998
OVCAR-4 = system: OVCAR-4
U-251 = system: U-251
CCRF-CEM = system: CCRF-CEM
UACC-62 = system: UACC-62
UACC-257 = system: UACC-257
RPMI-8226 = system: RPMI-8226
K562 = system: K562
M14 = system: M14
RXF 393 = system: RXF 393
HL-60 = system: HL-60
OVCAR-5 = system: OVCAR-5
SK-MEL-2 = system: SK-MEL-2
SK-OV-3 = system: SK-OV-3
IGROV-1 = system: IGROV-1
NCI-H23 = system: NCI-H23
TK-10 = system: TK-10
HT-29 = system: HT-29
SF-539 = system: SF-539
MCF7 = system: MCF7
MOLT-4 = system: MOLT-4
SN12C = system: SN12C
PC-3 = system: PC-3
HCT-116 = system: HCT-116
DU-145 = system: DU-145
SNB-75 = system: SNB-75
MDA-MB-435 = system: MDA-MB-435
NCI-H522 = system: NCI-H522
OVCAR-8 = system: OVCAR-8
ACHN = system: ACHN
SNB-19 = system: SNB-19
HOP-92 = system: HOP-92
MDA-N = system: MDA-N
T47D = system: T47D
NCI-H460 = system: NCI-H460
A498 = system: A498

Measured: GI50

Cc1cccc2c1CC(Cc1ccccc1C(=O)O)C2=O (stereo not given)
> 100 µM: HCT-15
inactive: Malme-3M > 100 µM | SK-MEL-28 > 100 µM | NCI/ADR-RES > 100 µM | A549 > 100 µM | UO-31 > 100 µM | HOP-62 > 100 µM | SW-620 > 100 µM | MDA-MB-231 > 100 µM | OVCAR-3 > 100 µM | SR > 100 µM | SF-268 > 100 µM | BT-549 > 100 µM | SF-295 > 100 µM | EKVX > 100 µM | NCI-H226 > 100 µM | 786-0 > 100 µM | CAKI-1 > 100 µM | SK-MEL-5 > 100 µM | LOX IMVI > 100 µM | COLO 205 > 100 µM | KM12 > 100 µM | Hs-578T > 100 µM | HCC 2998 > 100 µM | OVCAR-4 > 100 µM | U-251 > 100 µM | CCRF-CEM > 100 µM | UACC-62 > 100 µM | UACC-257 > 100 µM | RPMI-8226 > 100 µM | K562 > 100 µM | M14 > 100 µM | RXF 393 > 100 µM | HL-60 > 100 µM | OVCAR-5 > 100 µM | SK-MEL-2 > 100 µM | SK-OV-3 > 100 µM | IGROV-1 > 100 µM | NCI-H23 > 100 µM | TK-10 > 100 µM | HT-29 > 100 µM | SF-539 > 100 µM | MCF7 > 100 µM | MOLT-4 > 100 µM | SN12C > 100 µM | PC-3 > 100 µM | HCT-116 > 100 µM | DU-145 > 100 µM | SNB-75 > 100 µM | MDA-MB-435 > 100 µM | NCI-H522 > 100 µM | OVCAR-8 > 100 µM | ACHN > 100 µM | SNB-19 > 100 µM | HOP-92 > 100 µM | MDA-N > 100 µM | T47D > 100 µM | NCI-H460 > 100 µM

Cn1c2c(c3c(=O)[nH]ncc31)CCc1ccccc1-2
24.8 µM: HCT-15
inactive: Malme-3M 31.3 µM | SK-MEL-28 26.7 µM | NCI/ADR-RES 27.4 µM | A549 29.1 µM | UO-31 22.5 µM | HOP-62 78.5 µM | SW-620 34.1 µM | MDA-MB-231 21.1 µM | OVCAR-3 26.4 µM | SR 20.5 µM | SF-268 31.2 µM | BT-549 23.8 µM | SF-295 32.9 µM | EKVX 12.9 µM | NCI-H226 29.4 µM | 786-0 25.4 µM | CAKI-1 32.1 µM | SK-MEL-5 17.8 µM | LOX IMVI 17.6 µM | COLO 205 30 µM | KM12 23 µM | Hs-578T 10.2 µM | OVCAR-4 44.7 µM | U-251 33.5 µM | CCRF-CEM 20.8 µM | UACC-257 17.9 µM | RPMI-8226 25.5 µM | K562 29.8 µM | M14 18.6 µM | RXF 393 18.8 µM | HL-60 27 µM | OVCAR-5 45.6 µM | SK-MEL-2 24.6 µM | SK-OV-3 61.1 µM | IGROV-1 19 µM | NCI-H23 26.1 µM | TK-10 17.7 µM | HT-29 32.6 µM | SF-539 46.5 µM | MCF7 21.6 µM | MOLT-4 21.8 µM | SN12C 34.8 µM | A498 16.3 µM | PC-3 28.2 µM | HCT-116 20.1 µM | DU-145 35.7 µM | SNB-75 21.2 µM | MDA-MB-435 32.1 µM | NCI-H522 42.5 µM | OVCAR-8 57.3 µM | ACHN 25.4 µM | SNB-19 45.8 µM | HOP-92 44.8 µM | MDA-N 25.9 µM | T47D 28.6 µM | NCI-H460 16 µM
